Here are results for three compounds from patent publication US11466031B2, “Polymorphic forms of bictegravir and its sodium salt” (Mylan Laboratories Limited, priority 2018, dated 2022).

A short description of data set [1]: Storage stability: polymorph integrity by PXRD. The format is physicochemical. As to the method: The crystalline forms of bictegravir disclosed herein may be characterized by X-ray powder diffraction pattern (PXRD). Samples of each polymorph were analyzed on a BRUKER D-8 Discover powder diffractometer equipped with goniometer of θ/2θ configuration and Lynx Eye detector. The Cu-anode X-ray tube was operated at 40 kV and 30 mA. The experiments were conducted over the 2θ range of 2.0°-50.0°, 0.030° step size and 0.4 seconds step time. […] The samples were analyzed by PXRD for polymorph integrity.

Data set [2] is described as follows: Storage stability: HPLC purity. The class given is physicochemical.
The mark [3] stands for this setting: at 25° C./60% RH, 6 months, listed as amorphous bictegravir sodium.
Setting [4] is: at 40° C./75% RH, 6 months, listed as amorphous bictegravir sodium.
Where [5] appears, read: at 25° C./60% RH, 6 months, listed as crystalline bictegravir Form M1.
Where [6] appears, read: at 40° C./75% RH, 6 months, listed as crystalline bictegravir Form M1.
Setting [7] is: at 25° C./60% RH, 6 months, listed as Form M2.
The mark [8] stands for this setting: at 40° C./75% RH, 6 months, listed as Form M2.

The structures appear in SMILES notation.

On to `O=C(NCc1c(F)cc(F)cc1F)c1cn2c(c([O-])c1=O)C(=O)N1[C@@H]3CC[C@@H](C3)O[C@H]1C2.[Na+]` [Bictegravir Sodium Amorphous form, (2R,5S,13aR)-2,5-Methanopyrido[1′,2′:4,5]pyrazino[2,1-b][1,3]oxazepine-10-carboxamide, 2,3,4,5,7,9, 13,13a-octahydro-8-hydroxy-7,9-dioxo-N-[(2,4,6-trifluorophenyl)methyl]-, sodium salt (1:1)], for which the PXRD entry in data set [1] (at 25° C./60% RH, 1 months) is “Stable”; in data set [1] (at 25° C./60% RH, 2 months) it was “Stable”; in data set [1] (at 25° C./60% RH, 3 months), “Stable”; in data set [1] (at 25° C./60% RH, 6 months), “Stable”; in data set [1] (setting [3]), “no change”; in data set [1] (at 25° C./60% RH, Initial), “Amorphous”. The PXRD entry is “Stable” in data set [1] (at 40° C./75% RH, 1 months); “Stable” in data set [1] (at 40° C./75% RH, 2 months); “Stable” in data set [1] (at 40° C./75% RH, 3 months); “Stable” in data set [1] (at 40° C./75% RH, 6 months); “no change” in data set [1] (setting [4]); “Amorphous” in data set [1] (at 40° C./75% RH, Initial). The HPLC purity in data set [2] (at 25° C./60% RH, 1 months) is recorded as 99.68; in data set [2] (at 25° C./60% RH, 2 months) it was 99.52; in data set [2] (at 25° C./60% RH, 3 months), 99.54; in data set [2] (at 25° C./60% RH, 6 months), 99.46; in data set [2] (setting [3]) it was “no change”; in data set [2] (at 25° C./60% RH, Initial) it was 99.48. Moreover, the HPLC purity in data set [2] (at 40° C./75% RH, 1 months) is given as 99.68; in data set [2] (at 40° C./75% RH, 2 months), 99.54; in data set [2] (at 40° C./75% RH, 3 months), 99.48; in data set [2] (at 40° C./75% RH, 6 months) it was 99.31; in data set [2] (setting [4]) it was “no change”; in data set [2] (at 40° C./75% RH, Initial), 99.48.

For the compound `O=C(NCc1c(F)cc(F)cc1F)c1cn2c(c(O)c1=O)C(=O)N1[C@H]3CC[C@H](C3)O[C@@H]1C2` [Bictegravir Form M1, bictegravir], the PXRD result was “Stable” in data set [1] (at 25° C./60% RH, 1 months); “Stable” in data set [1] (at 25° C./60% RH, 2 months); “Stable” in data set [1] (at 25° C./60% RH, 3 months); “Stable” in data set [1] (at 25° C./60% RH, 6 months); “no change” in data set [1] (setting [5]); “Crystalline” in data set [1] (at 25° C./60% RH, Initial). In addition, the PXRD result in data set [1] (at 40° C./75% RH, 1 months) is given as “Stable”; in data set [1] (at 40° C./75% RH, 2 months), “Stable”; in data set [1] (at 40° C./75% RH, 3 months), “Stable”; in data set [1] (at 40° C./75% RH, 6 months) it was “Stable”; in data set [1] (setting [6]) it was “no change”; in data set [1] (at 40° C./75% RH, Initial), “Crystalline”. Moreover, the HPLC purity in data set [2] (at 25° C./60% RH, 1 months) is 99.68; in data set [2] (at 25° C./60% RH, 2 months), 99.67; in data set [2] (at 25° C./60% RH, 3 months) it was 99.73; in data set [2] (at 25° C./60% RH, 6 months) it was 99.73; in data set [2] (setting [5]), “no change”; in data set [2] (at 25° C./60% RH, Initial), 99.66. Further, the HPLC purity in data set [2] (at 40° C./75% RH, 1 months) is 99.67; in data set [2] (at 40° C./75% RH, 2 months), 99.69; in data set [2] (at 40° C./75% RH, 3 months) it was 99.80; in data set [2] (at 40° C./75% RH, 6 months), 99.78; in data set [2] (setting [6]), “no change”; in data set [2] (at 40° C./75% RH, Initial), 99.66.

Take `O=C(NCc1c(F)cc(F)cc1F)c1cn2c(c(O)c1=O)C(=O)N1[C@H]3CC[C@H](C3)O[C@@H]1C2` [Bictegravir Form M2, bictegravir]: the PXRD result is “Stable” in data set [1] (at 25° C./60% RH, 1 months); “Stable” in data set [1] (at 25° C./60% RH, 2 months); “Stable” in data set [1] (at 25° C./60% RH, 3 months); “Stable” in data set [1] (at 25° C./60% RH, 6 months); “no change” in data set [1] (setting [7]); “Crystalline” in data set [1] (at 25° C./60% RH, Initial). For the same compound, the PXRD result in data set [1] (at 40° C./75% RH, 1 months) was “Stable”; in data set [1] (at 40° C./75% RH, 2 months) it was “Stable”; in data set [1] (at 40° C./75% RH, 3 months) it was “Stable”; in data set [1] (at 40° C./75% RH, 6 months), “Stable”; in data set [1] (setting [8]), “no change”; in data set [1] (at 40° C./75% RH, Initial), “Crystalline”. The HPLC purity in data set [2] (at 25° C./60% RH, 1 months) is recorded as 99.68; in data set [2] (at 25° C./60% RH, 2 months) it was 99.67; in data set [2] (at 25° C./60% RH, 3 months), 99.73; in data set [2] (at 25° C./60% RH, 6 months), 99.73; in data set [2] (setting [7]), “no change”; in data set [2] (at 25° C./60% RH, Initial), 99.68. For the same compound, the HPLC purity was 99.67 in data set [2] (at 40° C./75% RH, 1 months); 99.69 in data set [2] (at 40° C./75% RH, 2 months); 99.73 in data set [2] (at 40° C./75% RH, 3 months); 99.71 in data set [2] (at 40° C./75% RH, 6 months); “no change” in data set [2] (setting [8]); 99.68 in data set [2] (at 40° C./75% RH, Initial).
